Earlier results in US20090047357A1, “METHOD OF PRODUCING DRUG-CONTAINING WAX MATRIX PARTICLES, EXTRUDER TO BE USED IN THE METHOD AND SUSTAINED-RELEASE PREPARATION CONTAINING CILOSTAZOL” (OTSUKA PHARMACEUTICAL CO., LTD., priority 2005, published 2009).

Compound: Cn1c(=O)c2[nH]cnc2n(C)c1=O [theophylline]
- water solubility: about 0.6 w/v %
